Data: patent US10105357B2, “Indication of antibiotic drugs for preparation of cancer inhibition pharmaceutical composition” (LAUNX BIOMEDICAL CO., LTD., priority 2014, dated 2018)
Where two headings read alike, the source gives them in different places.

Assays:
[1] = tested on: TSGH-8301 (Urinary Bladder Carcinoma); test: Cell viability analysis, bladder cancer TSGH-8301; format: cell-based, human; settings: Homo sapiens, 72 h
[2] = tested on: HCT116 (p53+) (Colorectal Carcinoma)
[3] = tested on: 786-O (Renal adenocarcinoma); test: Cell viability analysis, renal cancer 786-O; format: cell-based, human; settings: Homo sapiens, 786-0, 72 h, read-out: The results of antibiotic drug inhibiting cancer cell lines (cell viability analysis), 786-O
[4] = tested on: Hep3B (hepatocellular carcinoma); test: Cell viability analysis, hepatic cancer Hep3B; format: cell-based, human; settings: Homo sapiens, Hep3B, 72 h, read-out: The results of antibiotic drug inhibiting cancer cell lines (cell viability analysis), Hep3B
AsPC-1 = test: Cell viability analysis, pancreatic cancer AsPC-1; format: cell-based, human; settings: Homo sapiens, ASPC1, 72 h, read-out: The results of antibiotic drug inhibiting cancer cell lines (cell viability analysis), AsPC-1
T24 = test: Cell viability analysis, bladder cancer T24; format: cell-based, human; settings: Homo sapiens, T-24, 72 h, read-out: The results of antibiotic drug inhibiting cancer cell lines (cell viability analysis), T24
[5] = tested on: MKN-45 (Gastric Adenocarcinoma); test: Cell viability analysis, gastric cancer MKN-45; format: cell-based, human; settings: Homo sapiens, MKN-45, 72 h
[6] = tested on: HeLa (Cervix Adenocarcinoma); test: Cell viability analysis, cervical cancer HeLa; format: cell-based, human; settings: Homo sapiens, HeLa, 72 h
[7] = tested on: HI650 (Lung Adenocarcinoma); test: Cell viability analysis, lung cancer HI650; format: cell-based, human; settings: Homo sapiens, NCI-H1650, 72 h
[8] = tested on: MDA-MB-231 (Mammary Gland, Adenocarcinoma); test: Cell viability analysis, breast cancer MDA-MB-231; format: cell-based, human; settings: Homo sapiens, MDA-MB-231, 72 h, read-out: The results of antibiotic drug inhibiting cancer cell lines (cell viability analysis), MDA-MB231
[9] = tested on: MCF7 (Mammary Gland, Adenocarcinoma); test: Cell viability analysis, breast cancer MCF7; format: cell-based, human; settings: Homo sapiens, MCF7, 72 h
[10] = tested on: BCC (basal cell carcinoma); test: Cell viability analysis, skin cancer BCC; format: cell-based, human; settings: Homo sapiens, 72 h, read-out: The results of antibiotic drug inhibiting cancer cell lines (cell viability analysis), BCC
NIH: OVCAR-3 = test: Cell viability analysis, ovarian cancer NIH: OVCAR-3; format: cell-based, human; settings: Homo sapiens, OVCAR-3, 72 h, read-out: The results of antibiotic drug inhibiting cancer cell lines (cell viability analysis), NIH-OVCAR-3
TOV-21G = test: Cell viability analysis, ovarian cancer TOV-21G; format: cell-based, human; settings: Homo sapiens, TOV21G, 72 h, read-out: The results of antibiotic drug inhibiting cancer cell lines (cell viability analysis), TOV-21G
BxPC-3 = test: Cell viability analysis, pancreatic cancer BxPC-3; format: cell-based, human; settings: Homo sapiens, BXPC-3, 72 h, read-out: The results of antibiotic drug inhibiting cancer cell lines (cell viability analysis), BxPC-3
cancer cell lines = test: Cell viability analysis (WST-1) on cancer cell lines; format: cell-based, human; settings: drug 10 μM, 72 hours, WST-1; Table 3
[11] = tested on: A549 (Lung Adenocarcinoma); test: Cell viability analysis, lung cancer A549; format: cell-based, human; settings: Homo sapiens, A549, 72 h
[12] = tested on: LoVo (Colorectal Adenocarcinoma); test: Cell viability analysis, colon cancer LoVo; format: cell-based, human; settings: Homo sapiens, LoVo, 72 h
[13] = tested on: HepG2 (Hepatocellular Carcinoma); test: Cell viability analysis, hepatic cancer HepG2; format: cell-based, human; settings: Homo sapiens, HepG2, 72 h
[14] = tested on: AGS (Gastric Adenocarcinoma); test: Cell viability analysis, gastric cancer AGS; format: cell-based, human; settings: Homo sapiens, 72 h
[15] = tested on: HL-60 (Acute Promyelocytic Leukemia); test: Cell viability analysis, leukemia HL-60; format: cell-based, human; settings: Homo sapiens, HL-60, 72 h, read-out: cell viability (survival rate), HL-60, drug 10 μM, 72 hours, WST-1, OD450 nm
[16] = tested on: PC3 (p53−) (Prostate Adenocarcinoma); test: Cell viability analysis, prostate cancer PC3; format: cell-based, human; settings: Homo sapiens, 72 h
[17] = tested on: C-33A (Cervical carcinoma); test: Cell viability analysis, cervical cancer C-33A; format: cell-based, human; settings: Homo sapiens, C-33-A, 72 h, read-out: The results of antibiotic drug inhibiting cancer cell lines (cell viability analysis), C-33A
U-2OS = test: Cell viability analysis, osteosarcoma U-2OS; format: cell-based, human; settings: Homo sapiens, U2OS, 72 h, read-out: The results of antibiotic drug inhibiting cancer cell lines (cell viability analysis), U2OS
[18] = tested on: A375 (Amelanotic Melanoma); test: Cell viability analysis, skin cancer A375; format: cell-based, human; settings: Homo sapiens, A-375, 72 h
[19] = tested on: SAS (Tongue squamous cell carcinoma); test: Cell viability analysis, tongue cancer SAS; format: cell-based, human; settings: Homo sapiens, 72 h, read-out: The results of antibiotic drug inhibiting cancer cell lines (cell viability analysis), SAS
[20] = read-out: The results of antibiotic drug inhibiting cancer cell lines (cell viability analysis), TSGH-8301, TSGH-8301, repeated experiment
[21] = read-out: cell viability (survival rate), TSGH, drug 10 μM, 72 hours, WST-1, OD450 nm
[22] = read-out: The results of antibiotic drug inhibiting cancer cell lines (cell viability analysis), MKN-45, MKN-45, repeated experiment
[23] = read-out: cell viability (survival rate), MKN-45, drug 10 μM, 72 hours, WST-1, OD450 nm
[24] = read-out: The results of antibiotic drug inhibiting cancer cell lines (cell viability analysis), HeLa, repeated experiment
[25] = read-out: cell viability (survival rate), HeLa, drug 10 μM, 72 hours, WST-1, OD450 nm
[26] = read-out: The results of antibiotic drug inhibiting cancer cell lines (cell viability analysis), H1650, H1650, repeated experiment
[27] = read-out: cell viability (survival rate), H1650, drug 10 μM, 72 hours, WST-1, OD450 nm
[28] = read-out: The results of antibiotic drug inhibiting cancer cell lines (cell viability analysis), MCF-7, MCF-7, repeated experiment
[29] = read-out: cell viability (survival rate), MCF7, drug 10 μM, 72 hours, WST-1, OD450 nm
[30] = read-out: The results of antibiotic drug inhibiting cancer cell lines (cell viability analysis), A549, A549, repeated experiment
[31] = read-out: cell viability (survival rate), A549, drug 10 μM, 72 hours, WST-1, OD450 nm
[32] = read-out: The results of antibiotic drug inhibiting cancer cell lines (cell viability analysis), LoVo, repeated experiment
[33] = read-out: cell viability (survival rate), LoVo, drug 10 μM, 72 hours, WST-1, OD450 nm
[34] = read-out: The results of antibiotic drug inhibiting cancer cell lines (cell viability analysis), HepG2, HepG2, repeated experiment
[35] = read-out: cell viability (survival rate), HepG2, drug 10 μM, 72 hours, WST-1, OD450 nm
[36] = read-out: The results of antibiotic drug inhibiting cancer cell lines (cell viability analysis), AGS, repeated experiment
[37] = read-out: cell viability (survival rate), AGS, drug 10 μM, 72 hours, WST-1, OD450 nm
[38] = read-out: The results of antibiotic drug inhibiting cancer cell lines (cell viability analysis), PC-3, PC-3, repeated experiment
[39] = read-out: cell viability (survival rate), PC3, drug 10 μM, 72 hours, WST-1, OD450 nm
[40] = read-out: The results of antibiotic drug inhibiting cancer cell lines (cell viability analysis), A375, A375, repeated experiment
[41] = read-out: cell viability (survival rate), A375, drug 10 μM, 72 hours, WST-1, OD450 nm

C=C1[C@H](CO)[C@@H](O)C[C@@H]1n1cnc2c(=O)[nH]c(N)nc21 [Entecavir hydrate]
viability at 10 µM [1, 20]: 103%
viability at 10 µM [1, 21]: 53%
viability [2]: 99.9%
viability at 10 µM [3]: 92.7%
viability at 10 µM [4]: 90.8%
viability at 10 µM (AsPC-1): 98.4%
viability at 10 µM (T24): 96.4%
viability at 10 µM [5, 22]: 92.5%
viability at 10 µM [5, 23]: 59.7%
viability at 10 µM [6, 24]: 76.9%
viability at 10 µM [6, 25]: 99.4%
viability at 10 µM [7, 26]: 84.1%
viability at 10 µM [7, 27]: 80.8%
viability at 10 µM [8]: 98.9%
viability at 10 µM [9, 28]: 92.9%
viability at 10 µM [9, 29]: 58.6%
viability at 10 µM [10]: 69.5%
viability at 10 µM (NIH: OVCAR-3): 109%
viability at 10 µM (TOV-21G): 85.5%
viability at 10 µM (BxPC-3): 97.2%
inhibition effect on different cancer cell lines (cancer cell lines): significant inhibition effect
viability at 10 µM [11, 30]: 104%
viability at 10 µM [11, 31]: 57.4%
viability at 10 µM [12, 32]: 96.7%
viability at 10 µM [12, 33]: 91.6%
viability at 10 µM [13, 34]: 88.9%
viability at 10 µM [13, 35]: 98.8%
viability at 10 µM [14, 36]: 88.7%
viability at 10 µM [14, 37]: 46.4%
viability at 10 µM [15]: 74.1%
viability at 10 µM [16, 38]: 118%
viability at 10 µM [16, 39]: 81.2%
viability at 10 µM [17]: 96.7%
viability at 10 µM (U-2OS): 85.3%
viability at 10 µM [18, 40]: 89%
viability at 10 µM [18, 41]: 98.6%

Cc1cc2c(s1)Nc1ccccc1N=C2N1CCN(C)CC1 [Olanzapine (Zyprexa), Olanzapine]
viability at 10 µM [1, 20]: 152%
viability at 10 µM [1, 21]: 58.7%
viability [2]: 124%
viability at 10 µM [3]: 91.8%
viability at 10 µM [4]: 132%
viability at 10 µM (AsPC-1): 84.2%
viability at 10 µM (T24): 110%
viability at 10 µM [5, 22]: 125%
viability at 10 µM [5, 23]: 80.1%
viability at 10 µM [6, 24]: 121%
viability at 10 µM [6, 25]: 106%
viability at 10 µM [19]: 59.3%
viability at 10 µM [7, 26]: 107%
viability at 10 µM [7, 27]: 109%
viability at 10 µM [8]: 111%
viability at 10 µM [9, 28]: 86.8%
viability at 10 µM [9, 29]: 125%
viability at 10 µM (NIH: OVCAR-3): 96.8%
viability at 10 µM (TOV-21G): 105%
viability at 10 µM (BxPC-3): 65.9%
viability at 10 µM [11, 30]: 106%
viability at 10 µM [11, 31]: 88%
viability at 10 µM [12, 32]: 81.4%
viability at 10 µM [12, 33]: 88.5%
viability at 10 µM [13, 34]: 114%
viability at 10 µM [13, 35]: 93.3%
viability at 10 µM [14, 36]: 122%
viability at 10 µM [14, 37]: 84.2%
viability at 10 µM [15]: 118%
viability at 10 µM [16, 38]: 113%
viability at 10 µM [16, 39]: 92.2%
viability at 10 µM [17]: 98.2%
viability at 10 µM (U-2OS): 66%
viability at 10 µM [18, 40]: 98.3%
viability at 10 µM [18, 41]: 91.9%
